# Values quoted from earlier work, collected in patent US20240335532A1, “NANOPARTICULATE FORMULATION” (NewImmune II, LLC, priority 2021, published 2024).
# Read-outs that look alike come from different tables or passages of the source.
# How the values were obtained:
# influenza [1] = details: 50 μg intraperitoneally, with influenza vaccine, mice
# [2] = single subcutaneous dose, rats
# [3] = intravenous 0.5 to 5.0 mg/kg, dogs
# [4] = intravenous 2 mg/kg/day, gestational Days 6-18, pregnant rabbits
# [5] = 2000 and 5000 mg/kg under occlusion, rabbits
# [6] = 30 mg subcutaneous dose, healthy human volunteers
# influenza [7] = details: topical pre-treatment, young and elderly individuals
# [8] = dermal exposure, mice
# [9] = mice
# [10] = rats
# [11] = monkeys
structure (smiles),measurement,setting,value
"CC(C)Cn1cnc2c(N)nc3ccccc3c21 [imiquimod, 1-(2-methylpropyl)imidazo[4,5-c]quinolin-4-amine]",pH of maximum solubility in aqueous solution,Britton-Robinson buffer,≤ 2
same,aqueous solubility,above pH 6,only sparingly soluble
same,solubility in aqueous solution,physiological pH,very low solubility
same,humoral immune responses against the virus,influenza [1],significantly expedited and augmented
same,protection against early lethal viral challenges,influenza [1],conferred significant protection
same,subcutaneous lethal dose,[2],20 mg/kg
same,cardiovascular and nervous system effects,[3],"produced cardiac stimulation, central nervous system stimulation and some evidence of autonomic nervous system inhibition"
same,embryofetal toxicity or teratogenicity,[4],No treatment related effects
same,dermal toxicity,[5],no deaths and no signs of toxicity other than mild transient erythema at the application site
same,tolerability,[6],well tolerated
same,immunogenicity of influenza vaccination,influenza [7],significantly improves the immunogenicity
same,incidence of tumors or non-neoplastic lesions,[8],no increase
same,single dose toxicity,[9],high degree of safety
same,single dose toxicity,[10],high degree of safety
same,single dose toxicity,[11],high degree of safety
